From patent publication US6589452B2, “Photochemically controlled photonic crystal diffraction” (University of Pittsburgh, priority 2000, dated 2003)

Assays:
Type in all cases: physicochemical
[1] = water solubility of the azobenzene derivative; settings: compared with non-derivatized azobenzene
Description: In addition, it retains similar photochemical properties as non-derivatized azobenzene.
In a particular embodiment of the invention, an azobenzene derivative, which is modified in order to increase its water solubility, is attached to the reactive PCCA through the reaction of the epoxide groups inside the hydrogel with primary amino groups on the azobenzene derivative. See Example 3. Hereinafter, the functionalized PCCA having azobenzene attached thereto is referred to as “AZO-PCCA”. […] For example, spiropyran may be attached to the gel by directly copolymerizing the spiropyran with the acrylamide. The photosensitive components of the present invention may be synthesized by methods well-known in the art.

[2] = photochemical behavior of a water solution of the azobenzene derivative under UV irradiation; settings: UV 365 nm, 20 mW, monoexponential fit
Description: In addition, a shoulder arising from the nπ* transition is evident at long wavelength side of the ππ* peak. This peak, due to nπ* transition, at 434 nm becomes dominant when a photostationary state under UV irradiation is reached (mainly cis-azobenzene). The intensity of the nπ* peak increases as the intensity of the ππ* band decreases due to the conversion of trans isomer to cis under UV light (FIG. 1). This is a typical behavior of azobenzene-type molecules. The photochemical behavior of a water solution of the azobenzene derivative of the present invention was determined under UV irradiation (365 nm, 20 mW) and irradiation with visible light ([…], ˜50 mW). Under 488 nm irradiation, the trans-isomer is restored and the photostationary state under visible light is very close to the equilibrium state in dark. When the azobenzene derivative was exposed to 365 nm irradiation, kinetic data fitted well to monoexponential function with the characteristic time of ˜40 seconds. In addition, thermal relaxation in dark follows monoexponential function with characteristic time of about 10 days at 24° C. Furthermore, the photochemical behavior of the azobenzene derivative of the present invention when covalently attached to the functionalized PCCA of the present invention was close to that of the azobenzene derivative in solution. […]

[3] = thermal relaxation in the dark (cis-trans azobenzene isomerization); settings: azobenzene derivative in solution; 24° C.; monoexponential
Protocol: FIG. 3 is a graph showing the characteristic time for UV irradiation and thermal relaxation of the AZO-PCCA. The characteristic time for UV irradiation (trans-cis azobenzene isomerization), which was performed at 365 nm, 10 mW, is ˜50 seconds (curve 1 and 2). The response time of the PCCA diffraction shift could be reduced by increasing the actinic light power. In addition, the characteristic time for thermal relaxation (cis-trans azobenzene isomerization), which was performed by placing the AZO-PCCA in the dark, is ˜10 days (curve 3 and 4).
In addition, a shoulder arising from the nπ* transition is evident at long wavelength side of the ππ* peak. This peak, due to nπ* transition, at 434 nm becomes dominant when a photostationary state under UV irradiation is reached (mainly cis-azobenzene). The intensity of the nπ* peak increases as the intensity of the ππ* band decreases due to the conversion of trans isomer to cis under UV light (FIG. 1). This is a typical behavior of azobenzene-type molecules. The photochemical behavior of a water solution of the azobenzene derivative of the present invention was determined under UV irradiation (365 nm, 20 mW) and irradiation with visible light ([…], ˜50 mW). Under 488 nm irradiation, the trans-isomer is restored and the photostationary state under visible light is very close to the equilibrium state in dark. […]

## NCc1ccc(N=Nc2ccc(OCC(O)CO)cc2)cc1 (stereo not drawn) [azobenzene derivative, 4-N-aminomethylbenzolazo-4-phenoxy glycerol ether]
[1]
  water solubility: improved water solubility
[2]
  characteristic time, 365 nm irradiation (trans-cis): ~40 s
[3]
  characteristic time of thermal relaxation in dark: about 10 days
